{
  "source": "patent US3935309A",
  "about": "“Synergistic combinations of phosphonomycin and bacteriostatic agents” (Merck & Co., Inc., priority 1974, dated 1976)",
  "system": "bacterial cell wall",
  "assay": "mode of action on bacteria",
  "assay_type": "cell-based",
  "source_text": "In accordance with one embodiment of this invention, pathogenic bacteria are controlled by concomitantly contacting these pathogens with phosphonomycin and a bacteriostatic chemotherapeutic agent. The action of the phosphonomycin is to potentiate, augment or synergise the activity of the bacteriostatic agent. This potentiation of the bacteriostats is indeed unexpected since the bacteriostatic agents have an entirely different mode of action than phosphonomycin. […] Thus, phosphonomycin is indeed unique among antibiotics in that it is capable of potentiating the important bacteriostatic chemotherapeutic agents.",
  "data": [
    {"smiles": "C[C@@H]1O[C@@H]1P(=O)(O)O", "note": "[Phosphonomycin, (-) (cis-1,2-epoxypropyl)phosphonic acid]", "values": [
      {"measurement": "mode of action", "result": "bactericidal in action"},
      {"measurement": "spheroplasts", "setting": "certain bacterial strains exposed to the antibiotic", "result": "detection of spheroplasts"}
    ]}
  ]
}
